From patent US8637536B2, “Pyrimidinone compounds for use in the treatment of diseases or conditions mediated by Lp-PLA2” (Glaxo Group Limited, priority 2010, dated 2014)
Where a name gives a salt, the structure may show the parent alone.

target: T1, recombinant human Lp-PLA2 (Homo sapiens, UniProt Q13093); experiment: Recombinant human Lp-PLA2 assay (rhLp-PLA2, PED6 assay); format: biochemical; conditions: text thresholds; upper limit for pIC50 in this assay is 9.3; read-out: pIC50 values in the PED6 assay (converted)
T1 sequence (Q13093 22-441): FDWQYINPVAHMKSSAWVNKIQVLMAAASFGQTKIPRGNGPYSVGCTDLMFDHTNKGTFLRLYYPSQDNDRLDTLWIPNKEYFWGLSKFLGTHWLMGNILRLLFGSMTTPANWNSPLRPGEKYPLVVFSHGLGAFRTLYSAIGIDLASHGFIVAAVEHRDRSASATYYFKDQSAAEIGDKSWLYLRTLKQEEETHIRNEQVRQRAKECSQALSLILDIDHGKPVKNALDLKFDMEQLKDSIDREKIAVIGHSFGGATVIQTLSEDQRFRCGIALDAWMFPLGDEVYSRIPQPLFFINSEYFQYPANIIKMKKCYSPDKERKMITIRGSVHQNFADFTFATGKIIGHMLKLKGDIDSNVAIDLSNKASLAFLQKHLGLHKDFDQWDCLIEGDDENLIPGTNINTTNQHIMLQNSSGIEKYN
From the text: (1) Recombinant Human Lp-PLA2 Assay (rhLp-PLA2) (Also Referred to as “PED6” Assay)
N-((6-(2,4-dinitrophenyl)amino)-hexanoyl)-2-(4,4-difluoro-5,7-dimethyl-4-bora-3a,4a-diaza-s-indacene-3-pentanoyl)-1-hexadecanoyl-sn-glycero-3-phosphoethanolamine, triethylammonium salt (PED6) is a commercially available fluorescently-labelled phospholipid, which is commercially available from Molecular Probes. There is a quenching […] position and a Bodipy fluorescein (FL) group in the sn2 position.
The PED6 assay was run as an unquenched 10 μL assay. Compounds source plate was prepared by making 1:3 (by volume) serial dilution of the compounds into pure DMSO on 384-well microplate. […] 5 μL of recombinant human Lp-PLA2 enzyme (2 nM rhLp-PLA2 in assay buffer of 50 mM HEPES, pH7.4, 150 mM NaCl, 1 mM CHAPS) was added to each well of the plate with compounds. Plates were centrifuged for 10 sec at 500 rpm. […] Plates were centrifuged for 10 sec at 500 rpm. Plate was covered to protect from light and incubated for 20 min at room temperature. […] PIC50 data, curve and QC analysis was conducted by using XL fit module in Excel.

IC50 [nM] | Compound
≤ 1 | Cn1cc(Cc2cncnc2)c(=O)nc1SCCc1ccc(Oc2ccc(Cl)c(C(F)(F)F)c2)cc1 [E116, 2-{[2-(4-{[4-chloro-3-(trifluoromethyl)phenyl]oxy}phenyl)ethyl]thio}-1-methyl-5-(5-pyrimidinylmethyl)-4(1H)-pyrimidinone]
≤ 1 | COc1ncc(Cc2c[nH]c(SCc3ccc(Oc4ccc(F)c(C(F)(F)F)c4)c(C#N)c3)nc2=O)cn1 [E89, 2-{[4-fluoro-3-(trifluoromethyl)phenyl]oxy}-5-{[(5-{[2-(methyloxy)-5-pyrimidinyl]methyl}-4-oxo-1,4-dihydro-2-pyrimidinyl)thio]methyl}benzonitrile]
≤ 1 | COc1ncc(Cc2c[nH]c(OCCc3ccc(Oc4ccc(Cl)c(C(F)(F)F)c4)cc3)nc2=O)cn1 [E24, 2-{[2-(4-{[4-Chloro-3-(trifluoromethyl)phenyl]oxy}phenyl)ethyl]oxy}-5-{[2-(methyloxy)-5-pyrimidinyl]methyl}-4(1H)-pyrimidinone]
≤ 1 | O=c1nc(NCCc2ccc(Oc3ccc(Cl)c(C(F)(F)F)c3)cc2)[nH]cc1Cc1cncnc1 [E11, 2-{[2-(4-{[4-Chloro-3-(trifluoromethyl)phenyl]oxy}phenyl)ethyl]amino}-5-(5-pyrimidinylmethyl)-4(1H)-pyrimidinone]
≤ 1 | Cn1cc(Cc2cncnc2)c(=O)nc1OCCc1cc(F)c(Oc2ccc(Cl)c(C(F)(F)F)c2)c(F)c1 [E30, 2-{[2-(4-{[4-Chloro-3-(trifluoromethyl)phenyl]oxy}-3,5-difluorophenyl)ethyl]oxy}-1-methyl-5-(5-pyrimidinylmethyl)-4(1H)-pyrimidinone]
≤ 1 | Cn1cc(Cc2cn(C)c(SCc3ccc(Oc4ccc(F)c(C(F)(F)F)c4)c(C#N)c3)nc2=O)cn1 [E60, 2-(4-fluoro-3-(trifluoromethyl)phenoxy)-5-(((1-methyl-5-((1-methyl-1H-pyrazol-4-yl)methyl)-4-oxo-1,4-dihydropyrimidin-2-yl)thio)methyl)benzonitrile, trifluoroacetic acid salt]
≤ 1 | Cn1cc(Cc2c[nH]c(SCc3ccc(Oc4ccc(Cl)c(C(F)(F)F)c4)c(C#N)c3)nc2=O)cn1 [E58, 2-(4-chloro-3-(trifluoromethyl)phenoxy)-5-(((5-((1-methyl-1H-pyrazol-4-yl)methyl)-4-oxo-1,4-dihydropyrimidin-2-yl)thio)methyl)benzonitrile, trifluoroacetic acid salt]
≤ 1 | COc1ncc(Cc2c[nH]c(SCCc3ccc(Oc4ccc(Cl)c(C(F)(F)F)c4)c(C#N)c3)nc2=O)cn1 [E119, 2-{[4-chloro-3-(trifluoromethyl)phenyl]oxy}-5-{2-[(5-{[2-(methyloxy)-5-pyrimidinyl]methyl}-4-oxo-1,4-dihydro-2-pyrimidinyl)thio]ethyl}benzonitrile]
≤ 10 | COc1ncc(Cc2cn(C)c(SCc3ccc(Oc4ccc(F)cc4)cc3)nc2=O)cn1 [E53, 2-[({4-[(4-fluorophenyl)oxy]phenyl}methyl)thio]-1-methyl-5-{[2-(methyloxy)-5-pyrimidinyl]methyl}-4(1H)-pyrimidinone]
≤ 1 | O=c1nc(OCCc2cc(F)c(Oc3ccc(Cl)c(C(F)(F)F)c3)c(F)c2)[nH]cc1Cc1cncnc1 [E29, 2-{[2-(4-{[4-Chloro-3-(trifluoromethyl)phenyl]oxy}-3,5-difluorophenyl)ethyl]oxy}-5-(5-pyrimidinylmethyl)-4(1H)-pyrimidinone]
≤ 1 | COc1ncc(Cc2c[nH]c(SCc3ccc(Oc4ccc(Cl)c(C(F)(F)F)c4)cc3)nc2=O)cn1 [E74, 2-{[(4-{[4-chloro-3-(trifluoromethyl)phenyl]oxy}phenyl)methyl]thio}-5-{[2-(methyloxy)-5-pyrimidinyl]methyl}-4(1H)-pyrimidinone]
≤ 10 | COc1ncc(Cc2c[nH]c(SCc3ccc(Oc4ccc(F)cc4)cc3)nc2=O)cn1 [E52, 2-((4-(4-fluorophenoxy)benzyl)thio)-5-((2-methoxypyrimidin-5-yl)methyl)pyrimidin-4(1H)-one]
≤ 1 | N#Cc1cc(CCSc2nc(=O)c(Cc3cncnc3)c[nH]2)ccc1Oc1ccc(Cl)c(C(F)(F)F)c1 [E118, 2-{[4-chloro-3-(trifluoromethyl)phenyl]oxy}-5-(2-{[4-oxo-5-(5-pyrimidinylmethyl)-1,4-dihydro-2-pyrimidinyl]thio}ethyl)benzonitrile]
≤ 10 | CCc1cn(C)c(SCc2ccc(Oc3ccc(Cl)c(C(F)(F)F)c3)c(C#N)c2)nc1=O [E64, 2-{[4-chloro-3-(trifluoromethyl)phenyl]oxy}-5-{[(5-ethyl-1-methyl-4-oxo-1,4-dihydro-2-pyrimidinyl)thio]methyl}benzonitrile]
≤ 1 | COc1ncc(Cc2cn(C)c(OCCc3ccc(Oc4ccc(Cl)c(C(F)(F)F)c4)cc3)nc2=O)cn1 [E25, 2-{[2-(4-{[4-Chloro-3-(trifluoromethyl)phenyl]oxy}phenyl)ethyl]oxy}-1-methyl-5-{[2-(methyloxy)-5-pyrimidinyl]methyl}-4(1H)-pyrimidinone]
≤ 1 | N#Cc1cc(CSc2nc(=O)c(Cc3cncnc3)c[nH]2)ccc1Oc1cccc(C(F)(F)F)c1 [E96, 5-({[4-oxo-5-(5-pyrimidinylmethyl)-1,4-dihydro-2-pyrimidinyl]thio}methyl)-2-{[3-(trifluoromethyl)phenyl]oxy}benzonitrile]
≤ 1 | COc1ncc(Cc2c[nH]c(SCc3ccc(Oc4cccc(C(F)(F)F)c4)c(C#N)c3)nc2=O)cn1 [E100, 5-{[(5-{[2-(methyloxy)-5-pyrimidinyl]methyl}-4-oxo-1,4-dihydro-2-pyrimidinyl)thio]methyl}-2-{[3-(trifluoromethyl)phenyl]oxy}benzonitrile]
≤ 10 | COc1ncc(Cc2c[nH]c(OCCc3ccc(Oc4c(F)cc(Cl)cc4F)cc3)nc2=O)cn1 [E181, 2-(4-(4-chloro-2,6-difluorophenoxy)phenethoxy)-5-((2-methoxypyrimidin-5-yl)methyl)pyrimidin-4(1H)-one]
≤ 10 | COc1ncc(Cc2c[nH]c(OCCc3ccc(Oc4ccc(C(F)(F)F)cn4)cc3)nc2=O)cn1 [E137, 5-((2-methoxypyrimidin-5-yl)methyl)-2-(4-((5-(trifluoromethyl)pyridin-2-yl)oxy)phenethoxy)pyrimidin-4(1H)-one]
≤ 1 | O=c1nc(OCCc2ccc(Oc3ccc(Cl)c(C(F)(F)F)c3)c(F)c2)[nH]cc1Cc1cncnc1 [E31, 2-{[2-(4-{[4-Chloro-3-(trifluoromethyl)phenyl]oxy}-3-fluorophenyl)ethyl]oxy}-5-(5-pyrimidinylmethyl)-4(1H)-pyrimidinone trifluoroacetate]

same assay, conditions: upper limit for pIC50 obtained in this PED6 assay is 9.3; read-out: rhLp-PLA2 (PED6 assay) (pIC50) (converted)

IC50 [nM] | Compound
0.794 | Cn1cc(Cc2c[nH]c(OCCc3ccc(Oc4ccc(Cl)c(C(F)(F)F)c4)cc3)nc2=O)cn1 [E22, 2-{[2-(4-{[4-Chloro-3-(trifluoromethyl)phenyl]oxy}phenyl)ethyl]oxy}-5-[(1-methyl-1H-pyrazol-4-yl)methyl]-4(1H)-pyrimidinone trifluoroacetate]
0.794 | COc1ncc(Cc2c[nH]c(OCCc3ccc(Oc4ccc(Cl)c(C(F)(F)F)c4)cc3)nc2=O)cn1 [E24, 2-{[2-(4-{[4-Chloro-3-(trifluoromethyl)phenyl]oxy}phenyl)ethyl]oxy}-5-{[2-(methyloxy)-5-pyrimidinyl]methyl}-4(1H)-pyrimidinone]
1 | O=c1nc(NCCc2ccc(Oc3ccc(Cl)c(C(F)(F)F)c3)cc2)[nH]cc1Cc1cncnc1 [E11, 2-{[2-(4-{[4-Chloro-3-(trifluoromethyl)phenyl]oxy}phenyl)ethyl]amino}-5-(5-pyrimidinylmethyl)-4(1H)-pyrimidinone]
≤ 0.501 | Cn1cc(Cc2c[nH]c(SCc3ccc(Oc4ccc(Cl)c(C(F)(F)F)c4)c(C#N)c3)nc2=O)cn1 [E58, 2-(4-chloro-3-(trifluoromethyl)phenoxy)-5-(((5-((1-methyl-1H-pyrazol-4-yl)methyl)-4-oxo-1,4-dihydropyrimidin-2-yl)thio)methyl)benzonitrile, trifluoroacetic acid salt]
25.1 | Cn1cc(Cc2c[nH]c(SCc3ccc(Oc4ccc(Cl)c(C(F)(F)F)c4)c(C#N)c3)nc2=O)c2ccccc21 [E81, 2-(4-chloro-3-(trifluoromethyl)phenoxy)-5-(((5-((1-methyl-1H-indol-3-yl)methyl)-4-oxo-1,4-dihydropyrimidin-2-yl)thio)methyl)benzonitrile]
3.98 | O=c1nc(OCCc2ccc(Oc3ccc(Cl)c(C(F)(F)F)c3)cc2)[nH]cc1Cc1c(F)cc(F)cc1F [E129, 2-{[2-(4-{[4-chloro-3-(trifluoromethyl)phenyl]oxy}phenyl)ethyl]oxy}-5-[(2,4,6-trifluorophenyl)methyl]-4(1H)-pyrimidinone]
0.631 | COc1ncc(Cc2c[nH]c(SCc3ccc(Oc4ccc(Cl)c(C(F)(F)F)c4)cc3)nc2=O)cn1 [E74, 2-{[(4-{[4-chloro-3-(trifluoromethyl)phenyl]oxy}phenyl)methyl]thio}-5-{[2-(methyloxy)-5-pyrimidinyl]methyl}-4(1H)-pyrimidinone]
≤ 0.501 | Cn1cc(Cc2c[nH]c(SCCc3ccc(Oc4ccc(Cl)c(C(F)(F)F)c4)cc3)nc2=O)cn1 [E112]
